Experimental data: US9663478B2, “Benzotriazine oxides as drugs targeting Mycobacterium tuberculosis” (priority 2011, dated 2017)
Converted amounts (≈) assume the structure as drawn. Like-named read-outs stand apart in the source and are kept apart here.

How the values were obtained:
Mtb H37Rv [1] = test: TB MIC - SRI, resazurin-based microplate assay; type: cell-based, Mycobacterium tuberculosis; conditions: for MIC: Mycobacterium tuberculosis, H37RV
Mtb H37Rv [2] = test: TB MIC - ITR (UIC), Institute for Tuberculosis Research; type: cell-based, Mycobacterium tuberculosis; conditions: for MIC: Mycobacterium tuberculosis, H37RV, read-out: TB MIC - ITR; for MIC / TB MIC - ITR: Tables 1-4; for TB MIC - UIC: Tables P1, P2
NRP Mtb H37Rv cells = test: Low-oxygen recovery assay (LORA) MIC; type: cell-based, Mycobacterium tuberculosis; conditions: for MIC: Mycobacterium tuberculosis, H37RV, read-out: LORA MIC - ITR; for LORA MIC: Tables P1, P2, non-replicating M. tuberculosis
[3] = Tables 1-4 and text, read-out: TB MIC - SRI
[4] = Tables P1-P3, read-out: TB MIC - SRI

SMILES | MIC (Mtb H37Rv [2]) [µg/mL] | MIC (NRP Mtb H37Rv cells; NRP Mtb, Tables 1-4 and text) [µg/mL] | Vero Tox CC50 (Vero cells; African green monkey, 72 h) [µg/mL] | MIC (Mtb H37Rv [1]; [4]) [µg/mL] | TB MIC - UIC (Mtb H37Rv [2]) [µg/mL] | LORA MIC (NRP Mtb H37Rv cells) [µg/mL] | VERO Tox-SRI (Vero cells; African green monkey, 72 h) | further results
Cc1cccc2c1[n+]([O-])c(NC1CCC1)n[n+]2[O-] [Compound 15ed, 3-(cyclobutylamino)-5-methylbenzo[e][1,2,4]triazine 1,4-dioxide] | 0.47 (≈ 1.91 µM) | 0.43 (≈ 1.75 µM) | 22 | – | – | – | – | MIC (Mtb H37Rv [1]; [3]): 0.31 µg/mL (≈ 1.26 µM)
[O-][n+]1nc(NC2CCC2)[n+]([O-])c2cc3c(cc21)CCC3 [Compound 15fd, Cyclobutyl-(5,8-dioxy-2,3-dihydro-1H-5,6,8-triaza-cyclopenta[b]naphthalen-7-yl)-amine] | – | – | – | – | – | – | – | MIC, H37Rv (Mtb H37Rv [1]; Table 5): 0.62 µg/mL (≈ 2.28 µM); TB MIC - SRI (Mtb H37Rv [1]; Tables 1-4 and text): 0.62 µg/mL; TB MIC - ITR (Mtb H37Rv [2]): 0.96 µg/mL; LORA MIC - ITR (NRP Mtb H37Rv cells; NRP Mtb, Tables 1-4 and text): 0.44 µg/mL; Vero Tox CC50 (Vero cells): 34 µg/mL
[O-][n+]1nc(N[C@@H]2C[C@H]3CC[C@@H]2C3)[n+]([O-])c2cc3c(cc21)CCC3 [Compound 15fm, 3-((1R,2R,4S)-bicyclo[2.2.1]heptan-2-ylamino)-7,8-dihydro-6H-indeno[5,6-e][1,2,4]triazine 1,4-dioxide] | 0.93 (≈ 2.98 µM) | 0.36 (≈ 1.15 µM) | >50 | – | – | – | – | MIC (Mtb H37Rv [1]; [3]): 1.2 µg/mL (≈ 3.84 µM)
COc1cc2c(cc1C)[n+]([O-])nc(NC1CCC1)[n+]2[O-] [Compound 15gd, 3-(cyclobutylamino)-6-methoxy-7-methylbenzo[e][1,2,4]triazine 1,4-dioxide] | 5.1 (≈ 18.5 µM) | 2.9 (≈ 10.5 µM) | >50 | – | – | – | – | MIC (Mtb H37Rv [1]; [3]): 2.5 µg/mL (≈ 9.05 µM)
COc1cc2c(cc1C)[n+]([O-])nc(N[C@@H]1C[C@H]3CC[C@@H]1C3)[n+]2[O-] [Compound 15gm, 3-((1R,2R,4S)-bicyclo[2.2.1]heptan-2-ylamino)-6-methoxy-7-methylbenzo[e][1,2,4]triazine 1,4-dioxide] | 5.6 (≈ 17.7 µM) | 3.5 (≈ 11.1 µM) | >50 | – | – | – | – | MIC (Mtb H37Rv [1]; [3]): 5 µg/mL (≈ 15.8 µM)
CCN(CC)c1n[n+]([O-])c2ccccc2[n+]1[O-] [Compound 17o, 3-(diethylamino)benzo[e][1,2,4]triazine 1,4-dioxide] | 0.46 (≈ 1.96 µM) | 1.3 (≈ 5.55 µM) | 12 | – | – | – | – | MIC (Mtb H37Rv [1]; [3]): 0.31 µg/mL (≈ 1.32 µM)
[O-][n+]1nc(N2CCOCC2)[n+]([O-])c2ccccc21 [Compound 17p, 3-morpholinobenzo[e][1,2,4]triazine 1,4-dioxide] | 3.7 (≈ 14.9 µM) | 19 (≈ 76.5 µM) | 5.4 | – | – | – | – | MIC (Mtb H37Rv [1]; [3]): 2.5 to 5 µg/mL (≈ 10.1 to 20.1 µM)
[O-][n+]1nc(N2CCCCC2)[n+]([O-])c2cc3c(cc21)CCC3 [Compound 20r, 3-(piperidin-1-yl)-7,8-dihydro-6H-indeno[5,6-e][1,2,4]triazine 1,4-dioxide] | 0.4 (≈ 1.4 µM) | – | 21 | – | – | – | – | MIC (Mtb H37Rv [1]; Table 5, read-out: MIC, H37Rv): 0.62 µg/mL (≈ 2.17 µM); MIC (NRP Mtb H37Rv cells): 0.49 µg/mL (≈ 1.71 µM)
CN(C)c1n[n+]([O-])c2cc3c(cc2[n+]1[O-])CCC3 [Compound 20s, 3-(dimethylamino)-7,8-dihydro-6H-indeno[5,6-e][1,2,4]triazine 1,4-dioxide] | 0.3 (≈ 1.22 µM) | – | 24 | – | – | – | – | MIC (Mtb H37Rv [1]; Table 5, read-out: MIC, H37Rv): 0.62 µg/mL (≈ 2.52 µM); MIC (NRP Mtb H37Rv cells): 1.5 µg/mL (≈ 6.09 µM)
CN(CCc1ccccc1)c1n[n+]([O-])c2cc3c(cc2[n+]1[O-])CCC3 [Compound 20u, 3-(methyl(phenethyl)amino)-7,8-dihydro-6H-indeno[5,6-e][1,2,4]triazine 1,4-dioxide] | 0.24 (≈ 0.713 µM) | 0.44 (≈ 1.31 µM) | 40 | – | – | – | – | MIC (Mtb H37Rv [1]; Table 5, read-out: MIC, H37Rv): 0.31 µg/mL (≈ 0.922 µM)
O=S1(=O)CCN(c2n[n+]([O-])c3cc4c(cc3[n+]2[O-])CCC4)CC1 [Compound 20v, 3-(thiomorpholinosulfone-1-yl)-7,8-dihydro-6H-indeno[5,6-e][1,2,4]triazine 1,4-dioxide] | – | – | – | – | – | – | – | TB MIC - SRI (Mtb H37Rv [1]; Tables 1-4 and text): 5.0 µg/mL; TB MIC - ITR (Mtb H37Rv [2]): 15 µg/mL; LORA MIC - ITR (NRP Mtb H37Rv cells; NRP Mtb, Tables 1-4 and text): 30 µg/mL; Vero Tox CC50 (Vero cells): 17 µg/mL
CC1CCCCN1c1n[n+]([O-])c2cc3c(cc2[n+]1[O-])CCC3 (stereo not drawn) [Compound 20w, 3-(2-methylpiperidin-1-yl)-7,8-dihydro-6H-indeno[5,6-e][1,2,4]triazine 1,4-dioxide] | 0.66 (≈ 2.2 µM) | 0.47 (≈ 1.56 µM) | >50 | – | – | – | – | MIC (Mtb H37Rv [1]; Table 5, read-out: MIC, H37Rv): 1.2 µg/mL (≈ 4 µM)
CS(=O)(=O)N1CCN(c2n[n+]([O-])c3cc4c(cc3[n+]2[O-])CCC4)CC1 [Compound 20x, 3-(4-(methylsulfonyl)piperazin-1-yl)-7,8-dihydro-6H-indeno[5,6-e][1,2,4]triazine 1,4-dioxide] | 13 (≈ 35.6 µM) | 15 (≈ 41 µM) | >50 | – | – | – | – | MIC (Mtb H37Rv [1]; [3]): 2.5 to 5 µg/mL (≈ 6.84 to 13.7 µM); TB MIC - SRI (Mtb H37Rv [1]; Tables 1-4 and text): 5.0 µg/mL
CO[C@H]1/C=C/O[C@@]2(C)Oc3c(C)c(O)c4c(O)c(c(/C=N/N5CCN(C)CC5)c(O)c4c3C2=O)NC(=O)/C(C)=C\C=C\[C@H](C)[C@H](O)[C@@H](C)[C@@H](O)[C@@H](C)[C@H](OC(C)=O)[C@@H]1C [RIF, Rifampin, reference compound] | 0.041 (≈ 0.0498 µM) | 2 (≈ 2.43 µM) | >50 | – | – | – | – | MIC (Mtb H37Rv [1]; [3]): 0.003 µg/mL (≈ 0.00365 µM)
[O-][n+]1nc(NC2CC2)[n+]([O-])c2ccc(F)cc21 [SRI-012274] | – | – | – | 0.312 (≈ 1.32 µM) | 0.93 | 2.8 | 3.5 | –
[O-][n+]1nc(NC2CCCCC2)[n+]([O-])c2ccc(F)cc21 [SRI-012275] | – | – | – | 0.625 (≈ 2.25 µM) | 0.68 | 0.47 | <2.5 | –
[O-][n+]1nc(NC2CCC2)[n+]([O-])c2ccc(F)cc21 [SRI-012276] | – | – | – | 0.312 (≈ 1.25 µM) | 0.4 | 0.88 | 2.5 | –
[O-][n+]1nc(NC2CCCC2)[n+]([O-])c2ccc(F)cc21 [SRI-012277] | – | – | – | 0.312 (≈ 1.18 µM) | 0.33 | 0.34 | 2.3 | –
CCC(COC)Nc1n[n+]([O-])c2cc(F)ccc2[n+]1[O-] (stereo not drawn) [SRI-012278] | – | – | – | 5 (≈ 17.7 µM) | 2 | 1.87 | 6.3 | –
CCC(CC)Nc1n[n+]([O-])c2cc(F)ccc2[n+]1[O-] [SRI-012279] | – | – | – | 1.25 (≈ 4.69 µM) | 0.49 | 0.71 | 4.4 | –
CC(C)CC(C)Nc1n[n+]([O-])c2cc(F)ccc2[n+]1[O-] (stereo not drawn) [SRI-012281] | – | – | – | 1.25 (≈ 4.46 µM) | 0.55 | 0.4 | <2.5 | –
[O-][n+]1nc(NC2CCCCCC2)[n+]([O-])c2ccc(F)cc21 [SRI-012282] | – | – | – | 0.625 (≈ 2.14 µM) | 0.39 | 0.21 | <2.5 | –
CC(Nc1n[n+]([O-])c2cc(F)ccc2[n+]1[O-])C(C)(C)C (stereo not drawn) [SRI-012283] | – | – | – | 1.25 (≈ 4.46 µM) | 0.5 | 0.42 | <2.5 | –
CCNc1n[n+]([O-])c2cc(F)ccc2[n+]1[O-] [SRI-012284] | – | – | – | 0.625 (≈ 2.79 µM) | 0.35 | 0.75 | 4.6 | –
CCNc1n[n+]([O-])c2cc3c(cc2[n+]1[O-])CCC3 [SRI-012286] | – | – | – | – | 0.95 | 0.83 | 36.0 | MIC (Mtb H37Rv [1]; read-out: Activity against H37Rv, Table P4): 1.25 µg/mL (≈ 5.08 µM); MIC (Mtb H37Rv [1]; read-out: TB MIC - SRI, Tables P1-P3): 1.25 µg/mL (≈ 5.08 µM)
[O-][n+]1nc(NC2CC2)[n+]([O-])c2ccc(Cl)cc21 [SRI-012301] | – | – | – | 0.625 (≈ 2.47 µM) | 0.21 | 0.22 | 1.36 | –
[O-][n+]1nc(NC2CCC2)[n+]([O-])c2ccc(Cl)cc21 [SRI-012302] | – | – | – | 0.156 (≈ 0.585 µM) | < 0.125 | < 0.125 | 1.6 | –
[O-][n+]1nc(NC2CCCCC2)[n+]([O-])c2ccc(Cl)cc21 [SRI-012303] | – | – | – | 0.625 (≈ 2.12 µM) | 0.94 | 0.63 | 2.62 | –
CCC(COC)Nc1n[n+]([O-])c2cc(Cl)ccc2[n+]1[O-] (stereo not drawn) [SRI-012304] | – | – | – | 1.25 (≈ 4.18 µM) | 1.46 | 0.78 | 2.6 | –
CCNc1n[n+]([O-])c2cc(Cl)ccc2[n+]1[O-] [SRI-012306] | – | – | – | 1.25 (≈ 5.19 µM) | < 0.125 | 0.41 | 2.65 | –
